Experimental data as given in ChEMBL document CHEMBL1201862, “PubChem BioAssay data set” (2004).
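These data come from cells grown in 96-well plates and exposed to compound for 48 hours at five concentrations. The concentration for 50% growth inhibition is given as GI50.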 Calls of active or inactive are those of the source. Rule as the data show it: active = GI50 up to about 1.1 µM and inactive = higher.

Experiments:
Assay in all cases: NCI anticancer screen, dose series, 48 h
SK-MEL-2 = system: SK-MEL-2
IGROV-1 = system: IGROV-1
MOLT-4 = system: MOLT-4
CCRF-CEM = system: CCRF-CEM
BT-549 = system: BT-549
ACHN = system: ACHN
786-0 = system: 786-0
NCI-H522 = system: NCI-H522
MDA-MB-435 = system: MDA-MB-435
HOP-62 = system: HOP-62
SK-MEL-28 = system: SK-MEL-28
MCF7 = system: MCF7
K562 = system: K562
NCI-H226 = system: NCI-H226
SNB-75 = system: SNB-75
OVCAR-5 = system: OVCAR-5
SF-268 = system: SF-268
TK-10 = system: TK-10
SK-OV-3 = system: SK-OV-3

Structure (SMILES)	GI50 (SK-MEL-2)	GI50 (IGROV-1)	GI50 (MOLT-4)	GI50 (CCRF-CEM)	GI50 (BT-549)	GI50 (ACHN)	GI50 (786-0)	GI50 (NCI-H522)	GI50 (MDA-MB-435)	GI50 (HOP-62)	GI50 (SK-MEL-28)	GI50 (MCF7)	GI50 (K562)	GI50 (NCI-H226)	GI50 (SNB-75)	GI50 (OVCAR-5)	GI50 (SF-268)	GI50 (TK-10)	GI50 (SK-OV-3)
CN1C(=O)C(O)CC1c1ccccc1F (stereo not given)	> 100 µM (inactive)	> 100 µM (inactive)	> 100 µM (inactive)	> 100 µM (inactive)	> 100 µM (inactive)	> 100 µM (inactive)	> 100 µM (inactive)	> 100 µM (inactive)	> 100 µM (inactive)	> 100 µM (inactive)	> 100 µM (inactive)	> 100 µM (inactive)	> 100 µM (inactive)	> 100 µM (inactive)	> 100 µM (inactive)	> 100 µM (inactive)	–	–	–
Nc1nc(Cl)c(/C=N\O)c(NCC2(CO)CC(=O)C2)n1	–	23.2 µM (inactive)	31.8 µM (inactive)	41.7 µM (inactive)	51.5 µM (inactive)	62.1 µM (inactive)	49.1 µM (inactive)	68.7 µM (inactive)	95.1 µM (inactive)	76.9 µM (inactive)	> 100 µM (inactive)	52.5 µM (inactive)	54.2 µM (inactive)	> 100 µM (inactive)	31.1 µM (inactive)	85.3 µM (inactive)	> 100 µM (inactive)	> 100 µM (inactive)	–
O=C(NN1C(=O)/C(=C/c2ccc(Cl)cc2)N=C1c1ccccc1)c1c(Cl)c(Cl)c(Cl)c(Cl)c1-c1nc2ccccc2[nH]1	18.6 µM (inactive)	2.47 µM (inactive)	6.93 µM (inactive)	12.1 µM (inactive)	13.4 µM (inactive)	22.1 µM (inactive)	18.5 µM (inactive)	18.2 µM (inactive)	2.8 µM (inactive)	< 0.01 µM (active)	20.3 µM (inactive)	9.91 µM (inactive)	4.28 µM (inactive)	8 µM (inactive)	12.2 µM (inactive)	29.1 µM (inactive)	14.6 µM (inactive)	–	< 0.01 µM (active)
CC1(C)C2CC3C4CC5(Nc6ccccc6C5N41)[C@]3(C)CC2=O (stereo not given in full)	> 50 µM (inactive)	> 50 µM (inactive)	> 50 µM (inactive)	> 50 µM (inactive)	> 50 µM (inactive)	> 50 µM (inactive)	> 50 µM (inactive)	> 50 µM (inactive)	> 50 µM (inactive)	> 50 µM (inactive)	> 50 µM (inactive)	> 50 µM (inactive)	> 50 µM (inactive)	> 50 µM (inactive)	> 50 µM (inactive)	> 50 µM (inactive)	> 50 µM (inactive)	> 50 µM (inactive)	–
NS(=O)(=O)c1nnc(NC(=S)NC(=O)Nc2ccc(Cl)c(Cl)c2)s1	31.8 µM (inactive)	17.2 µM (inactive)	29 µM (inactive)	28.1 µM (inactive)	21.3 µM (inactive)	–	28.3 µM (inactive)	14.8 µM (inactive)	19.4 µM (inactive)	22.8 µM (inactive)	37.1 µM (inactive)	38 µM (inactive)	30.4 µM (inactive)	23.9 µM (inactive)	17.4 µM (inactive)	25.1 µM (inactive)	27.5 µM (inactive)	34.9 µM (inactive)	20.7 µM (inactive)
Cc1ccccc1OC(C)C(=O)NN1C(=O)CSC1c1ccc(Cl)cc1 (stereo not given)	> 53.7 µM (inactive)	38.5 µM (inactive)	22.1 µM (inactive)	–	44.8 µM (inactive)	33 µM (inactive)	18.2 µM (inactive)	4.16 µM (inactive)	57.9 µM (inactive)	21 µM (inactive)	73.3 µM (inactive)	32.1 µM (inactive)	23.6 µM (inactive)	> 49.1 µM (inactive)	35.7 µM (inactive)	54.6 µM (inactive)	25.4 µM (inactive)	47.4 µM (inactive)	47.1 µM (inactive)
CCOC(=O)c1nc2ccc(C(F)(F)F)cc2nc1Oc1ccc(C(=O)OC)cc1	32.1 µM (inactive)	59.4 µM (inactive)	> 100 µM (inactive)	> 100 µM (inactive)	39.1 µM (inactive)	> 100 µM (inactive)	66.1 µM (inactive)	–	71.1 µM (inactive)	22.5 µM (inactive)	86.1 µM (inactive)	43.1 µM (inactive)	> 100 µM (inactive)	45.5 µM (inactive)	50.4 µM (inactive)	–	76.4 µM (inactive)	45.8 µM (inactive)	> 100 µM (inactive)
S=c1[nH]nc(Cn2c3ccc(Br)cc3c3nc4ccccc4nc32)n1C1CCCCC1	23.1 µM (inactive)	21.4 µM (inactive)	–	25.6 µM (inactive)	52.2 µM (inactive)	29.4 µM (inactive)	20.7 µM (inactive)	21.3 µM (inactive)	20.3 µM (inactive)	18.6 µM (inactive)	9.44 µM (inactive)	16.7 µM (inactive)	25.9 µM (inactive)	20.5 µM (inactive)	52.2 µM (inactive)	32.5 µM (inactive)	51.6 µM (inactive)	> 47.8 µM (inactive)	26.5 µM (inactive)
